Literature values in patent US11504321B2, “Process of coloring keratinous material comprising the use of an organosilicon compound, an effect pigment, a further coloring compound and a film-forming polymer II” (Henkel AG & Co. KGaA, priority 2019, dated 2022).

Conditions: for solubility in water: 25° C.

| SMILES | solubility in water | solubility in water (in words) (at 25° C.) |
| --- | --- | --- |
| O=C([O-])c1c(Cl)c(Cl)c(Cl)c(Cl)c1-c1c2c(Br)cc(=O)c(Br)c-2oc2c(Br)c(O)cc(Br)c12.O=C([O-])c1c(Cl)c(Cl)c(Cl)c(Cl)c1-c1c2c(Br)cc(=O)c(Br)c-2oc2c(Br)c(O)cc(Br)c12.[Na+].[Na+] [Acid Red 92, disodium salt of 3,4,5,6-tetrachloro-2-(1,4,5,8-tetrabromo-6-hydroxy-3-oxoxanthen-9-yl)benzoic acid] | greater than 10 g/L | – |
| O=C([O-])C1=NN(c2ccc(S(=O)(=O)[O-])cc2)C(=O)C1N=Nc1ccc(S(=O)(=O)[O-])cc1.[Na+].[Na+].[Na+] (centres unmarked) [Acid Yellow 23, trisodium salt of 4,5-dihydro-5-oxo-1-(4-sulfophenyl)-4-((4-sulfophenyl)azo)-1H-pyrazole-3-carboxylic acid] | – | highly soluble in water |
| Nc1cc(S(=O)(=O)[O-])cc2cc(S(=O)(=O)[O-])c(N=Nc3ccccc3)c(O)c12.[Na+].[Na+] [Acid Red 33, disodium salt of 5-amino-4-hydroxy-3-(phenylazo)-naphthalene-2,7-disulphonate] | 2500 µg/mL | – |
| CCN(Cc1cccc(S(=O)(=O)[O-])c1)c1ccc(C(=C2C=CC(=[N+](CC)Cc3cccc(S(=O)(=O)[O-])c3)C=C2)c2ccccc2S(=O)(=O)[O-])cc1.[Na+].[Na+] [Acid Blue 9] | more than 20 % by weight | – |
| O=S(=O)([O-])c1ccc(N=Nc2c(O)ccc3ccccc23)cc1.[Na+] [Acid Orange 7, sodium salt of 4-[(2-hydroxy-1-naphthyl)azo]benzene sulphonate] | more than 7 g/L | – |
